The source of these data is patent publication US9629816B2, “Small molecule therapeutic compounds targeting thioesterase deficiency disorders and methods of using the same” (The United States of America, as represented by the …, priority 2011, dated 2017).

Assay [1] has as its system INCL lymphoblasts. Nature of the assay: Depletion of [35S]cysteine-labeled lipid thioesters / hydrolysis of S-acylated proteins in PPT1-deficient lymphoblasts. It counts as cell-based, human. As to conditions: lymphoblasts of nine NCL patients; 48 hours vs untreated cells (FIG. 8). As to the method: (§1) Thus, this derivative was chosen for more extensive study of its ability to hydrolyze […] proteins, and to deplete lipid-extractable [^35S]cysteine thioesters from fibroblasts and lymphoblasts. INCL fibroblasts were obtained and cultured as described in Example 4. The cells were then labeled with [^35S]cysteine. Briefly, following incubation for six hours in medium lacking serum and cysteine/cystine, the cells were washed and then re-cultured for varying lengths of time in medium containing NtBuHA, with a change of medium every 12 hours. As controls, [^35S]cysteine-labeled cells were cultured in drug-free medium as well as medium containing 1M HA. Following incubation, cells were washed twice with cold PBS and then centrifuged at 2,250 g at 4° C. for 5 minutes. Lipid thioesters were then extracted from the cells and subject to analysis by high-performance thin layer chromatography. Briefly, the extracted fatty acyl esters were dissolved in chloroform:methanol (1:1) and an aliquot applied to a TLC plate and resolved using a mixture of chloroform:methanol:water (65:25:4). The plates were then dried and autoradiographs obtained.
The ability of NtBuHA to deplete [^35S]cysteine-thioester containing compounds was tested using [^35S]cysteine-labeled, immortalized lymphoblasts. […]

For assay [2], the system named is PPT1-KO mice. Nature of the assay: Survival of PPT1-KO mice. Format: in vivo, mouse. As to conditions: 5.5 months after initiation; treatment from 3 months of age; 52 out of 59 mice; untreated 10%. As to the method:
(§2) All animal experiments were performed according to the institutional guidelines after an animal protocol was approved by the Animal Care and Use Committee of the National Institute of Child Health and Development, National Institutes of Health. PPT1-KO mice (a gift from Dr. S. L. Hofmann, University of Texas Southwestern Medical Center at Dallas, Dallas, Tex., USA) were generated by targeted disruption of the last exon in the PPT1 gene in embryonic stem (ES) cells. These mice were subsequently backcrossed for 10 generations with wild type C57BL/6 mice in order to obtain congenic C57 background and a breeding pair was provided by Dr. Mark Sands to start the inventors' colony. Animals were housed and maintained in a pathogen-free facility. Three-month old PPT-KO mice were given NtBuHA in their drinking water (1 mM NtBuHA and 1 mM NaCl).
For this study, 3-month old PPT1-KO mice were divided into two groups. In the first group, 55 mice received no treatment (control). In the second group, 59 mice were treated with NtBuHA. The status of all mice was monitored on a daily basis.

Assay [3] relates to INCL lymphoblasts. Nature of the assay: TEM analysis of GRODs in cultured INCL lymphoblasts. It counts as cell-based, human. As to the method: Transmission electron microsocopy (TEM) of INCL lymphoblasts and fibroblasts was performed. Briefly, cells were first treated with 250 μM NtBuHA for 3 weeks. Medium was replaced with fresh 250 μM of NtBuHA at every 72 hours. After treatment, cells were fixed with 2.5% glutaraldehyde in sodium phosphate buffer, washed three times with Millonig's phosphate buffer and stained with 2.5% uranyl acetate. Ultra-thin sections were then prepared using AO Reichert Ultracut ultramicrotome, stained with lead citrate and examined by using Zeiss EM10 CA.
Accordingly, untreated- and NtBuHA-treated cultured INCL lymphoblasts were analyzed using TEM.
For a therapeutic agent to be effective for INCL it must not only mediate depletion of ceroid by cleaving thioester linkage in S-acylated proteins but it must also prevent re-accumulation of ceroid. […] Some of these cultures were washed with PBS and then cultured for an additional 3 weeks in medium without NtBuHA before being analyzed by TEM.

The test system of assay [4] is PPT1-KO mice. In words: Autofluorescence of brain tissues of PPT1-KO mice. It counts as in vivo, mouse. As to conditions: vs untreated PPT1-KO mice (FIG. 13). As to the method: as §2
Accumulation of intracellular autofluorescent lipopigment material in the brain and other tissues is a characteristic pathological finding in INCL patients and in PPT1-KO mice. Given this, it was hypothesized that NtBuHA-mediated depletion of GRODs may also reduce the intensity of autofluorescence in brain tissues of NtBuHA-treated PPT1-KO mice. Accordingly, a comparison of the autofluorescence of brain tissues from NtBuHA-treated PPT 1-KO mice, untreated PPT 1-KO mice, and wild-type litter-mates was performed.

Another assay deals with INCL fibroblasts. Nature of the assay: Depletion of [35S]cysteine-labeled lipid thioesters in INCL fibroblasts. Format: cell-based, human. To be noted: treatment for 24 and 48 hours vs untreated control cells (FIG. 7). As to the method:
as §1

For `CC(C)(C)NO` [NtBuHA, N-(tert-Butyl)hydroxylamine], the “intensity of [35S]cysteine-labeled lipid bands” value in the assay with INCL lymphoblasts [1] was “clear reduction in the intensity”. For the same molecule, the mice still alive in the assay on PPT1-KO mice [2] is recorded as 88%. In the assay on INCL lymphoblasts [3] (250 μM for 3 weeks vs untreated controls (FIG. 9A-C)), the “GRODs in INCL lymphoblasts” value is “either no GRODs, FIG. 9B, or a substantially reduced number of GRODs that were considerably smaller in size”. In the assay on INCL lymphoblasts [3] (3 weeks treatment, then additional 3 weeks in medium without NtBuHA (FIG. 9D, 11)), the “GRODs after withdrawal of treatment” value was “withdrawal from the culture medium caused reaccumulation”. Besides, the “autofluorescence of brain tissues” value in the assay with PPT1-KO mice [4] is “markedly reduced autofluorescence”. In the assay with INCL fibroblasts, the “intensity of [35S]cysteine-labeled lipid extractable thioester compounds” value is recorded as “significantly reduced intensity”.
